Measurements taken from patent US9718788B2, “Heteroaryl compounds useful as inhibitors of E1 activating enzymes” (MILLENNIUM PHARMACEUTICALS, INC., priority 2006, dated 2017).

Target: T1, recombinant human NAE enzyme (Homo sapiens, UniProt Q8TBC4)
T1 construct: His (N); made in house; host or cells: Sf9 insect cells (baculovirus, Bac-to-Bac)
T1 sequence (Q8TBC4 1-463): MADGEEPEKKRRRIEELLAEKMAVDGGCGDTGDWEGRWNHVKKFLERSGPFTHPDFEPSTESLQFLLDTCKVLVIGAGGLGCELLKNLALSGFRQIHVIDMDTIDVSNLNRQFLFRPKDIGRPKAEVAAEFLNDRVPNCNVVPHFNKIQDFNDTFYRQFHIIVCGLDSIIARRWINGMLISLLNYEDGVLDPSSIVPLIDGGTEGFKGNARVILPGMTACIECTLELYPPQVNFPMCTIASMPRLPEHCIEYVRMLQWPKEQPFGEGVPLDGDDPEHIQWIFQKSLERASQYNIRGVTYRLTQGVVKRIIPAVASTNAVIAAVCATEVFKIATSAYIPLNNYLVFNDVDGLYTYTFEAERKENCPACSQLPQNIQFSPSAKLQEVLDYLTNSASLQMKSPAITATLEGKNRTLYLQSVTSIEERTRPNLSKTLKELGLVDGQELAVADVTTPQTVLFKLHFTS
T1 sequence (Q13564 1-534 partner): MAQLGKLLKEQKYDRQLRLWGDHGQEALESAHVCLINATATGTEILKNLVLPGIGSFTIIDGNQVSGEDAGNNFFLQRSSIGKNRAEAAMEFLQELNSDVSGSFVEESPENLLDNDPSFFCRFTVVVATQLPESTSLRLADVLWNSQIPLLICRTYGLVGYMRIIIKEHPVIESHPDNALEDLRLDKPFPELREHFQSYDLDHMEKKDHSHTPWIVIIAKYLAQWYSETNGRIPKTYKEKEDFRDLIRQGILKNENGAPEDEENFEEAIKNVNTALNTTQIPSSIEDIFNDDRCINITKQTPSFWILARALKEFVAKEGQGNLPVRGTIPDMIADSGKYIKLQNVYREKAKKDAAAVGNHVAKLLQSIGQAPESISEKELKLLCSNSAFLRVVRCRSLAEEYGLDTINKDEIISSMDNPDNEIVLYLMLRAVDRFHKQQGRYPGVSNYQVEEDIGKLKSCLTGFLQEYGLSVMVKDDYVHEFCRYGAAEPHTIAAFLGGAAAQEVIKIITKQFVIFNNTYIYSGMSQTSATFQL
Assay: Nedd8-Activating Enzyme (NAE) HTRF Assay
Format: biochemical
Conditions: 20 μM ATP
Summary of the method: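 Recombinant human NAE (NAEα/His-NAEβ from Sf9 cells) at 0.20 nM with 20 μM ATP, 0.01 μM Ubc12-GST and 0.075 μM Nedd8-Flag in HEPES pH 7.5, 105 min at 24° C. EDTA stop; Eu-anti-FLAG/APC-anti-GST HTRF read after 1 h.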

Row | Compound | IC50 (bound given in μM) | IC50 (bound given in nM)
1 | NS(=O)(=O)OC[C@H]1C[C@@H](NC(=O)c2ccccn2)[C@H](O)[C@@H]1O [Compound I-23, {(1R,2R,3S,4R)-2,3-dihydroxy-4-[(pyridin-2-ylcarbonyl)amino]cyclopentyl}-methyl sulfamate] | > 10 µM | 
2 | NS(=O)(=O)OC[C@@H]1C[C@@H](Nc2ncnc3[nH]c(-c4cccc5c4CCCC5)nc23)C[C@@H]1O [Compound I-126, ((1S,2S,4R)-2-hydroxy-4-{[8-(5,6,7,8-tetrahydronaphthalen-1-yl)-9H-purin-6-yl]amino}cyclopentyl)methyl sulfamate] |  | ≤ 0.5 µM
3 | NS(=O)(=O)OC[C@@H]1C[C@@H](Nc2ncnc3[nH]c(-c4ccccc4OC(F)(F)F)nc23)C[C@@H]1O [Compound I-62, [(1S,2S,4R)-2-hydroxy-4-({8-[2-(trifluoromethoxy)phenyl]-9H-purin-6-yl}-amino)cyclopentyl]methyl sulfamate] |  | ≤ 0.5 µM
4 | NS(=O)(=O)OC[C@H]1C[C@@H](Nc2ncnc3[nH]cnc23)[C@H](O)[C@@H]1O [Compound I-3, [(1R,2R,3S,4R)-2,3-dihydroxy-4-(9H-purin-6-ylamino)cyclopentyl]methyl sulfamate] |  | ≤ 0.5 µM
5 | COc1ccccc1-c1nc2c(N[C@@H]3C[C@@H](COS(N)(=O)=O)[C@@H](O)C3)ncnc2[nH]1 [Compound I-133, ((1S,2S,4R)-2-hydroxy-4-{[8-(2-methoxyphenyl)-9H-purin-6-yl]amino}cyclopentyl)methyl sulfamate] |  | ≤ 0.5 µM
6 | NS(=O)(=O)OC[C@H]1C[C@@H](Nc2cc(N[C@H]3CCc4cc(F)c(F)cc43)ncn2)[C@H](O)[C@@H]1O [Compound I-17, {(1R,2R,3S,4R)-4-[(6-{[(1S)-5,6-difluoro-2,3-dihydro-1H-inden-1-yl]amino}-pyrimidin-4-yl)amino]-2,3-dihydroxycyclopentyl}methyl sulfamate] |  | ≤ 0.5 µM
7 | NS(=O)(=O)OC[C@H]1C[C@@H](Nc2nc(N[C@H]3CCc4ccccc43)ncc2F)[C@H](O)[C@@H]1O [Compound I-113, [(1R,2R,3S,4R)-4-({2-[(1S)-2,3-dihydro-1H-inden-1-ylamino]-5-fluoropyrimidin-4-yl}-amino)-2,3-dihydroxycyclopentyl]methyl sulfamate] | < 10 µM | > 0.5 µM
8 | NS(=O)(=O)OC[C@H]1C[C@@H](Nc2ncnc(N[C@H]3CCc4ccccc43)n2)[C@H](O)[C@@H]1O [Compound I-26, [(1R,2R,3S,4R)-4-({4-[(1S)-2,3-dihydro-1H-inden-1-ylamino]-1,3,5-triazin-2-yl}-amino)-2,3-dihydroxycyclopentyl]methyl sulfamate] |  | ≤ 0.5 µM
9 | CN(c1ncnc2c1nc(-c1ccccc1)n2C)[C@@H]1C[C@@H](COS(N)(=O)=O)[C@@H](O)C1 [Compound I-123, {(1S,2S,4R)-2-hydroxy-4-[methyl(9-methyl-8-phenyl-9H-purin-6-yl)amino]cyclopentyl}-methyl sulfamate] | < 10 µM | > 0.5 µM
10 | NS(=O)(=O)OC[C@@H]1C[C@@H](Nc2ncnc3nc(-c4cccc5c4OCC5)[nH]c23)C[C@@H]1O [Compound I-117, ((1S,2S,4R)-4-{[8-(2,3-dihydro-1-benzofuran-7-yl)-7H-purin-6-yl]amino}-2-hydroxycyclopentyl)methyl sulfamate] |  | ≤ 0.5 µM
11 | NS(=O)(=O)OC[C@H]1C[C@@H](Nc2cc(CCc3ccccc3)ncn2)[C@H](O)[C@@H]1O [Compound I-86, ((1R,2R,3S,4R)-2,3-dihydroxy-4-{[6-(2-phenylethyl)pyrimidin-4-yl]amino}cyclopentyl)-methyl sulfamate] | < 10 µM | > 0.5 µM

The next lines start with the values.

Row | IC50 (bound given in μM) | IC50 (bound given in nM) | Compound
12 | < 10 µM | > 0.5 µM | CO[C@H]1c2ccccc2C[C@H]1Oc1cc(O[C@@H]2C[C@@H](COS(N)(=O)=O)[C@@H](O)C2)ncn1 [Compound I-77, {(1S,2S,4R)-2-hydroxy-4-[(6-{[(1S,2R)-1-methoxy-2,3-dihydro-1H-inden-2-yl]oxy}-pyrimidin-4-yl)oxy]cyclopentyl}methyl sulfamate]
13 |  | ≤ 0.5 µM | NS(=O)(=O)OC[C@H]1C[C@@H](Nc2cc(N[C@H]3CCc4cc(Cl)ccc43)ncn2)[C@H](O)[C@@H]1O [Compound I-19, {(1R,2R,3S,4R)-4-[(6-{[(1S)-5-chloro-2,3-dihydro-1H-inden-1-yl]amino}-pyrimidin-4-yl)-amino]-2,3-dihydroxycyclopentyl}methyl sulfamate]
14 | < 10 µM | > 0.5 µM | CC1(C)C[C@H](Nc2cc(O[C@@H]3C[C@@H](COS(N)(=O)=O)[C@@H](O)C3)ccn2)c2ccc(Cl)cc21 [Compound I-35, {(1S,2S,4R)-4-[(2-{[(1S)-5-chloro-3,3-dimethyl-2,3-dihydro-1H-inden-1-yl]-amino}-pyridin-4-yl)oxy]-2-hydroxycyclopentyl}methyl sulfamate]
15 |  | ≤ 0.5 µM | CC1(C)C[C@H](Nc2nccc(N[C@@H]3C[C@H](COS(N)(=O)=O)[C@@H](O)[C@H]3O)n2)c2ccccc21 [Compound I-15, {(1R,2R,3S,4R)-4-[(2-{[(1S)-3,3-dimethyl-2,3-dihydro-1H-inden-1-yl]amino}-pyrimidin-4-yl)amino]-2,3-dihydroxycyclopentyl}methyl sulfamate]
16 |  | ≤ 0.5 µM | NS(=O)(=O)OC[C@H]1C[C@@H](Nc2cc(Nc3cccc4c3CCCC4)ncn2)[C@H](O)[C@@H]1O [Compound I-118, ((1R,2R,3S,4R)-2,3-dihydroxy-4-{[6-(5,6,7,8-tetrahydronaphthalen-1-ylamino)pyrimidin-4-yl]amino}cyclopentyl)methyl sulfamate]
17 |  | ≤ 0.5 µM | NS(=O)(=O)OC[C@H]1C[C@@H](Nc2cc(N[C@@H]3CCc4ccccc43)ncn2)[C@H](O)[C@@H]1O [Compound I-8, [(1R,2R,3S,4R)-4-({6-[(1R)-2,3-dihydro-1H-inden-1-ylamino]pyrimidin-4-yl}-amino)-2,3-dihydroxycyclopentyl]methyl sulfamate]
18 | < 10 µM | > 0.5 µM | NS(=O)(=O)OC[C@@H]1C[C@@H](Oc2cc(N3Cc4ccccc4C3)ncn2)C[C@@H]1O [Compound I-120, ((1S,2S,4R)-4-{[6-(1,3-dihydro-2H-isoindol-2-yl)pyrimidin-4-yl]oxy}-2-hydroxycyclopentyl)methyl sulfamate]
19 |  | ≤ 0.5 µM | NS(=O)(=O)OC[C@H]1C[C@@H](Nc2cc(N[C@H]3CCc4ccccc43)ncn2)[C@H](O)[C@@H]1O [Compound I-29, [(1R,2R,3S,4R)-4-({6-[(1S)-2,3-dihydro-1H-inden-1-ylamino]pyrimidin-4-yl}-amino)-2,3-dihydroxycyclopentyl]methyl sulfamate]
20 |  | ≤ 0.5 µM | NS(=O)(=O)OC[C@@H]1C[C@@H](Oc2cc(N[C@H]3CCCc4ccccc43)ncn2)C[C@@H]1O [Compound I-40, [(1S,2S,4R)-2-hydroxy-4-({6-[(1S)-1,2,3,4-tetrahydronaphthalen-1-ylamino]pyrimidin-4-yl}oxy)cyclopentyl]methyl sulfamate]
21 |  | ≤ 0.5 µM | NS(=O)(=O)OC[C@H]1C[C@@H](Nc2cc(N[C@H]3CCc4c(F)ccc(F)c43)ncn2)[C@H](O)[C@@H]1O [Compound I-6, {(1R,2R,3S,4R)-4-[(6-{[(1S)-4,7-difluoro-2,3-dihydro-1H-inden-1-yl]amino}-pyrimidin-4-yl)amino]-2,3-dihydroxycyclopentyl}methyl sulfamate]
22 |  | ≤ 0.5 µM | NS(=O)(=O)OC[C@@H]1C[C@@H](Nc2ncnc3[nH]c(-c4ccc(Cl)cc4)nc23)C[C@@H]1O [Compound I-111, ((1S,2S,4R)-4-{[8-(4-chlorophenyl)-9H-purin-6-yl]amino}-2-hydroxycyclopentyl)methyl sulfamate]
23 |  | ≤ 0.5 µM | Cc1nc(N[C@H]2CCc3ccccc32)cc(N[C@@H]2C[C@H](COS(N)(=O)=O)[C@@H](O)[C@H]2O)n1 [Compound I-18, [(1R,2R,3S,4R)-4-({6-[(1S)-2,3-dihydro-1H-inden-1-ylamino]-2-methylpyrimidin-4-yl}-amino)-2,3-dihydroxycyclopentyl]methyl sulfamate]
24 |  | ≤ 0.5 µM | CO[C@H]1CCc2ccccc2[C@H]1Nc1cc(O[C@@H]2C[C@@H](COS(N)(=O)=O)[C@@H](O)C2)ncn1 [Compound I-142, {(1S,2S,4R)-2-hydroxy-4-[(6-{[(1R,2S)-2-methoxy-1,2,3,4-tetrahydronaphthalen-1-yl]amino}pyrimidin-4-yl)oxy]cyclopentyl}methyl sulfamate]
